Publication PMC11547813, “The Antifungal Effects of Berberine and Its Proposed Mechanism of Action Through CYP51 Inhibition, as Predicted by Molecular Docking and Binding Analysis” (Molecules, 2024)

Target: T1, CYP51Ca (recombinant protein CYP51 of C. albicans) (Candida albicans, UniProt P10613)
T1 construct: gene ERG11; commercial recombinant protein from Sangon Biotech (Shanghai)
Test: biolayer interferometry (BLI), protein immobilised on APS sensor
Assay type: binding
Source text: biolayer interferometry (BLI), protein immobilised on APS sensor on CYP51Ca (recombinant protein CYP51 of C. albicans) | berberine binds to CYP51Ca in a dose-dependent manner, with a dissociation constant (KD)

T1 sequence (P10613 whole entry): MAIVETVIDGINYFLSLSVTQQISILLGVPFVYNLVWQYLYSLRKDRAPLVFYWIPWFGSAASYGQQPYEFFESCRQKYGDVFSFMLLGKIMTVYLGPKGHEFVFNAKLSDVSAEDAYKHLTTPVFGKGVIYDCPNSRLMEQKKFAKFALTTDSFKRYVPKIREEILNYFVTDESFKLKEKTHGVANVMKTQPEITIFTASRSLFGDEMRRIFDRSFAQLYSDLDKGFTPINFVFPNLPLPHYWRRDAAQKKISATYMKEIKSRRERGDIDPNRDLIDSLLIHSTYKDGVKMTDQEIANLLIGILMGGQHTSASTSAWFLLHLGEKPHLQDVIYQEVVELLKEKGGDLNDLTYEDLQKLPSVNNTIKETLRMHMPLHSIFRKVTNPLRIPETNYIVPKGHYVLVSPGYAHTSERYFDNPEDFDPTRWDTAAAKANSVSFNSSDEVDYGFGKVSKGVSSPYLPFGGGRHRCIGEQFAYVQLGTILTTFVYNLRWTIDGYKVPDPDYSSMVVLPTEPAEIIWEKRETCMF

## COc1ccc2cc3[n+](cc2c1OC)CCc1cc2c(cc1-3)OCO2 [berberine]
  Kd: < 1 pM
